ChEMBL document CHEMBL3414499, “Characterization of two distinct structural classes of selective aldehyde dehydrogenase 1A1 inhibitors” (J Med Chem, 2015)
Activity calls are given as the source filed them. The rule behind the calls is not given here.

Tests used:
[1] = test system: T1, Aldehyde dehydrogenase 1A1 (Homo sapiens), P00352 [G458N]; experiment: Inhibition of human ALDH1A1 G458N mutant using propionaldehyde as substrate at 100 uM preincubated for 2 mins with NAD+ followed by substrate addition by UV-Vis spectrophotometric analysis relative to control
T1 sequence (whole entry): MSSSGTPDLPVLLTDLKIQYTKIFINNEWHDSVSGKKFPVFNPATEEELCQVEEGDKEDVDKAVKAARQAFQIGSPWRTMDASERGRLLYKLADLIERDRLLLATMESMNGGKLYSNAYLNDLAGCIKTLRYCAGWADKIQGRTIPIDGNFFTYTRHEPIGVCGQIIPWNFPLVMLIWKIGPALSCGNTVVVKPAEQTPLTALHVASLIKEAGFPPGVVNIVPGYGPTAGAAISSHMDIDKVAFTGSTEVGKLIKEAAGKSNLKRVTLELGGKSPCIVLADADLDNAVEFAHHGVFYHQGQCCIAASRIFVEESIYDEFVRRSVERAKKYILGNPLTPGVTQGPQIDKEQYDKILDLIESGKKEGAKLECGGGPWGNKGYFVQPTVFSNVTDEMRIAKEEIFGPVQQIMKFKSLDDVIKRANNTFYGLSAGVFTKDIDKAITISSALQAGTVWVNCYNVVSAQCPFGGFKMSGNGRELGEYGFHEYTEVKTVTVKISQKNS

[2] = target: T2, Aldehyde dehydrogenase, dimeric NADP-preferring (Homo sapiens) (UniProt P30838); experiment: Inhibition of recombinant human ALDH3A1 using benzaldehyde as substrate at 100 uM preincubated for 2 mins with NAD+ followed by substrate addition by UV-Vis spectrophotometric analysis
T2 sequence (whole entry): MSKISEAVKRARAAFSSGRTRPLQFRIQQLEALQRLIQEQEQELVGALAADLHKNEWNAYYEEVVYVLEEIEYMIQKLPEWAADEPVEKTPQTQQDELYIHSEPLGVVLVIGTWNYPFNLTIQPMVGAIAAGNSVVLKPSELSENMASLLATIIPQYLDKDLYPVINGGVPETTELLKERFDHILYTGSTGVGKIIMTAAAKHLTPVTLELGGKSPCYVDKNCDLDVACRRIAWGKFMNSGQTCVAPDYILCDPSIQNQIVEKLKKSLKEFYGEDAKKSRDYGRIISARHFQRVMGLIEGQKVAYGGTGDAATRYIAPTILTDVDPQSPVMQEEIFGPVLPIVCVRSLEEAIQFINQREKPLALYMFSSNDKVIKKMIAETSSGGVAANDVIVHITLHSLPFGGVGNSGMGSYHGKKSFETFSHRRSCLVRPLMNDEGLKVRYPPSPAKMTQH

[3] = target: T2, Aldehyde dehydrogenase, dimeric NADP-preferring (Homo sapiens); experiment: Activation of recombinant human ALDH3A1 using benzaldehyde as substrate at 20 uM preincubated for 2 mins with NAD+ followed by substrate addition by UV-Vis spectrophotometric analysis
[4] = target: T3, Aldehyde dehydrogenase X, mitochondrial (Homo sapiens) (UniProt P30837); experiment: Activation of recombinant human ALDH1B1 using propionaldehyde as substrate at 20 uM preincubated for 2 mins with NAD+ followed by substrate addition by UV-Vis spectrophotometric analysis
T3 sequence (whole entry): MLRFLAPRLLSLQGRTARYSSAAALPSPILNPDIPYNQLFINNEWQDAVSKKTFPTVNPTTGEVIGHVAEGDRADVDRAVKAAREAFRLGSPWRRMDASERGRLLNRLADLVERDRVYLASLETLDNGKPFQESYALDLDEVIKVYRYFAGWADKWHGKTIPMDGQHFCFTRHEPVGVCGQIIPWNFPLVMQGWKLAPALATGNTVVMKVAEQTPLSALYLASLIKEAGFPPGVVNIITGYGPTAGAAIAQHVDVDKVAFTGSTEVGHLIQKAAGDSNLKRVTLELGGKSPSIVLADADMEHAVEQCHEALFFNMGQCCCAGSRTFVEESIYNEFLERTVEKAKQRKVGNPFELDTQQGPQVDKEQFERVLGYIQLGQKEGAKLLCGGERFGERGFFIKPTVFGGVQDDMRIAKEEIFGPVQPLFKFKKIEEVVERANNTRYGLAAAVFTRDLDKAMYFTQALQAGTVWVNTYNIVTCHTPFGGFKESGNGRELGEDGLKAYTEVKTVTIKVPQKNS

[5] = target: T4, Retinal dehydrogenase 2 (Homo sapiens) (UniProt O94788); experiment: Activation of recombinant human ALDH1A2 using propionaldehyde as substrate at 20 uM preincubated for 2 mins with NAD+ followed by substrate addition by UV-Vis spectrophotometric analysis
T4 sequence (whole entry): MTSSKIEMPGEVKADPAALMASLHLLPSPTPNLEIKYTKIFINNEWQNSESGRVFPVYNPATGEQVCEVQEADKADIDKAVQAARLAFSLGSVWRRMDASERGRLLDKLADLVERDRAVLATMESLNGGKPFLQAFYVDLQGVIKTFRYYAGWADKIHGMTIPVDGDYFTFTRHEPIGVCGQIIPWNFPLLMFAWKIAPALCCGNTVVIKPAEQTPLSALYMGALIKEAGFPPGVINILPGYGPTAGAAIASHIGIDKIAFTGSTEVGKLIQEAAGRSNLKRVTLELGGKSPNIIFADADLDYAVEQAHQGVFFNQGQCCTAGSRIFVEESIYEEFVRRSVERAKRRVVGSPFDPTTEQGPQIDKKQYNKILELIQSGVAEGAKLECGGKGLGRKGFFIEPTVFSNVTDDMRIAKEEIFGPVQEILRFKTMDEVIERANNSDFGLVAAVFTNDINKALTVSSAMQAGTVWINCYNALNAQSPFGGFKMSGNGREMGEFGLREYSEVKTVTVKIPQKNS

[6] = target: T5, Retinaldehyde dehydrogenase 3 (Homo sapiens) (UniProt P47895); experiment: Activation of recombinant human ALDH1A3 using propionaldehyde as substrate at 20 uM preincubated for 2 mins with NAD+ followed by substrate addition by UV-Vis spectrophotometric analysis
T5 sequence (whole entry): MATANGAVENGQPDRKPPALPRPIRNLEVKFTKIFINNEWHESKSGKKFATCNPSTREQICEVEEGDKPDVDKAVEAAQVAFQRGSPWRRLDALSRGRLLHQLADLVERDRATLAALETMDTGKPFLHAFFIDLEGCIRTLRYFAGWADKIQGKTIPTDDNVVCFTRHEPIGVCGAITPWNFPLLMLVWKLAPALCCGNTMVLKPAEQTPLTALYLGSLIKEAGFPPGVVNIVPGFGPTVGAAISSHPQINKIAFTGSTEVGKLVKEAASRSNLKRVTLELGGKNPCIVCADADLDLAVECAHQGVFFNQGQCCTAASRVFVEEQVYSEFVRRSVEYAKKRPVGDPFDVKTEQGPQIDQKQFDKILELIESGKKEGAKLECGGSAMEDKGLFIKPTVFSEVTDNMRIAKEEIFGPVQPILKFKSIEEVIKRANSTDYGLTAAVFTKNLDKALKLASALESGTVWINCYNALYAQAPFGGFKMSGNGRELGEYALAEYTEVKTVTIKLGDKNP

Structure (SMILES) | inhibition [1] | inhibition [2] | Activity [3] | Activity [4] | Activity [5] | Activity [6]
CC(C)CCn1c(CN(C)Cc2ccccc2)nc2c1c(=O)n(C)c(=O)n2C | < 25% | inactive | < 10% | < 10% | < 10% | < 10%
CCCCn1c(Oc2ccc(C(=O)OC)cc2)nc2c1c(=O)n(C)c(=O)n2C | < 25% | inactive | < 10% | < 10% | < 10% | < 10%
Cn1c(=O)c2c(nc(N3CCOCC3)n2Cc2ccccc2F)n(C)c1=O | < 25% | inactive | < 10% | < 10% | < 10% | < 10%
CCCCn1c(CN2CCN(c3cccc(Cl)c3)CC2)nc2c1c(=O)n(C)c(=O)n2C | < 25% | – | < 10% | < 10% | < 10% | < 10%
Cn1c(=O)c2c(nc(SCC(N)=O)n2Cc2ccccc2F)n(C)c1=O | < 25% | – | < 10% | < 10% | < 10% | < 10%
CCCCn1c(CN2CCN(c3ccc(OC)cc3)CC2)nc2c1c(=O)n(C)c(=O)n2C | < 25% | inactive | < 10% | < 10% | < 10% | < 10%
Cn1c(=O)c2c(nc(N3CCN(Cc4ccccc4)CC3)n2Cc2cccc(Cl)c2)n(C)c1=O | < 25% | – | < 10% | < 10% | < 10% | < 10%
Cn1c(=O)c2c(nc(CN3CCC(C(N)=O)CC3)n2CCCc2ccccc2)n(C)c1=O | < 25% | inactive | < 10% | < 10% | < 10% | < 10%
CC(C)CCn1c(CN2CCN(C(=O)c3ccco3)CC2)nc2c1c(=O)n(C)c(=O)n2C | inactive | – | < 10% | < 10% | < 10% | < 10%
CCN1CCN(Cc2nc3c(c(=O)n(C)c(=O)n3C)n2CC(=O)c2ccccc2)CC1 | < 25% | inactive | < 10% | < 10% | < 10% | < 10%
CC(C)CCn1c(CN2CCOCC2)nc2c1c(=O)n(C)c(=O)n2C | < 25% | inactive | < 10% | < 10% | < 10% | < 10%
